Assays:
[1] = system: monoclonal antibody B3A1, raised in mice against bovine serum albumin-derivatized calcitroic acid
Procedure: Bound tracer is separated from free by second antibody precipitation.
(§1) Monoclonal antibodies binding calcitroic acid were detected in culture supernatants by a radioimmunoassay in which supernatants were exposed to microtiter plates coated with a calcitroic acid-egg albumin conjugate.
Radioligand was added after 1 hr pre-incubation in displacement assays; otherwise it was added immediately. After incubation for 18 hours, 10λ of rabbit anti-mouse Fab' (unrestricted gift of Dr. Judith Kapp-Pierce, Department of Pathology, Jewish Hospital of St. Louis and Washington University School of Medicine) was added with carrier mouse IgG and tubes were incubated for another 45 minutes at 4°. Alternatively, 20 λ of a partially purified preparation of carrier mouse IgG was added to the assay mixture. Then 40 λ of purified preparation of rabbit antimouse IgG was added and the mixture incubated for 4 hours at 4° C. […] After centrifugation at 1000×g for 20 minutes, the supernatants were aspirated, the pellets suspended in Budget Solve (Research Products International, Mount Prospect, Ill.) and their radioactivity determined in a Beckman 7000 Scintillation Counter (Beckman Instruments Company, Palo Alto, Calif.).

[2] = system: monoclonal antibody B2B4, raised in mice against bovine serum albumin-derivatized calcitroic acid; settings: for concentration displacing half of the reversibly bound 3H-1,25-(OH)2 D3: monoclonal antibody b2b4, 18 h
Procedure: as §1
Radioligand was added after 1 hr pre-incubation in displacement assays; otherwise it was added immediately. […] Alternatively, 20 λ of a partially purified preparation of carrier mouse IgG was added to the assay mixture. Then 40 λ of purified preparation of rabbit antimouse IgG was added and the mixture incubated for 4 hours at 4° C. […] After centrifugation at 1000×g for 20 minutes, the supernatants were aspirated, the pellets suspended in Budget Solve (Research Products International, Mount Prospect, Ill.) and their radioactivity determined in a Beckman 7000 Scintillation Counter (Beckman Instruments Company, Palo Alto, Calif.).
For sucrose density gradient analysis, 350 λ of assay mixture or supernatant after immunoprecipitation was layered on a linear 5-20% sucrose gradient and centrifuged at 100,000×g for 17 hours. Molecular markers, human gamma globulin (16 mg/ml assay buffer) (Calbiochem-Behring, La Jolla, Calif.) and BSA (12 mg/ml assay buffer) were centrifuged identically. Fractions were collected through a bottom puncture apparatus and their radioactivity assayed.

SMILES	KD of calcitriol less than the KD of this analog by [1]	recognition by the antibody ([1]; at concentrations as great as 100 ng/ml)	concentration displacing half of the reversibly bound 3H-1,25-(OH)2 D3 [2] [ng/mL]	displacement of radioligand from B2B4 (sucrose gradient) ([2]; 1 ng/ml of 1,25-(OH)2 D3 added prior to centrifugation, data not shown)
C=C1CC[C@H](O)C/C1=C/C=C1\CCC[C@]2(C)[C@@H]([C@H](C)CCC(O)C(C)(C)O)CC[C@@H]12 (stereo partly drawn) [24,25-(OH)2 D3, 24,25-dihydroxycholecalciferol]	about 41/2	does not recognize	0.048	–
C=C1CC[C@H](O)C/C1=C/C=C1\CCC[C@]2(C)[C@@H]([C@H](C)CCCC(C)(C)O)CC[C@@H]12 [25-OHD3, 25-hydroxycholecalciferol]	more than 6 orders of magnitude	–	0.068	–
C=C1/C(=C\C=C2/CCC[C@]3(C)[C@@H]([C@H](C)CCCC(C)(C)O)CC[C@@H]23)C[C@@H](O)C[C@@H]1O [1,25-(OH)2 D3, 1,25-dihydroxycholecalciferol]	–	–	–	almost completely displaced
